“Also recorded” adds a separate entry of the source.
Tests used:
[1] = Body weight and 24 hour feeding behavior in DIO rats (BioDaq Food Intake Monitoring System); assay type: in vivo; details: DIO rats on treatment
Procedure: Obese adult female Wistar rats (n=4/group) received single daily injections (sc) of vehicle or Spexin (35 μg/kg BW). Body weights and food intake were measured daily. Average daily food intake (FIG. 22A) and body weight (FIG. 22B) for each group was recorded for each 24 hr period. 24 hr food intake was reduced in the Spexin treated animals (dark circles) by Day 3. […] This effect persisted well beyond the immediate treatment period, and was apparent out to Day 7.
A more detailed analysis of hourly feeding behaviors, including 1) number of “meals” during a 24 hr light/dark cycle, and 2) meal duration and incidence were continuously recorded by a BioDaq Food Intake Monitoring System (FIG. 23). Pre-treatment baselines (FIG. 23A), on-treatment responses (FIG. 23B), early (FIG. 23C) and late (FIG. 23D) “wash-out” periods are presented. […]
Obese (DIO) adult female Wistar rats (n=4/group) received single daily injections (sc) of vehicle or Spexin (35 μg/kg BW). Individual body weights and food intake were measured and recorded daily, and the average food intake and body weight for each group was recorded for each 24 hour period. For a more detailed analysis of hourly feeding behaviors, number of feeding events or “meals” during a 24 hour light/dark cycle, and frequency and durations of individual meals were continuously recorded via a BioDaq Food Intake Monitoring System (New Brunswick, N.J.).

[2] = Conditioned taste aversion testing; assay type: in vivo, adult female Wistar rats; details: ip injection on test days 1-3; spexin 70 μg/kg, LiCl 63.5 mg/kg body weight (FIG. 29)
Procedure: After 20 hrs of water deprivation, rats were offered a single bottle containing 0.1% sodium saccharin for 20 min, followed by an ip injection of physiological saline (n=6), 70 μg spexin/kg body weight (n=6), or 63.5 mg LiCl/kg body weight (0.15M LiCl) (n=5) after an additional 20 min. Injections were administered on test days 1-3, with no injection on the final test day. […] Data points represent mean±SEM.
Conditioned taste aversion studies were conducted using adult female Wistar rats according to established protocols [P27-P29]. For training, rats were water but not food deprived for 20 hrs (1800-1400 hrs the following day), then offered a single bottle of water ad libitum for 20 min. Training sessions took place on 2 days of each week, spaced at 3-4 day intervals, to allow recovery of normal food intake and body weight. A total of 7 training sessions were conducted, by which time all animals had learned to drink promptly when fluid was offered. Testing was initiated on the same schedule, with 0.1% sodium saccharin rather than water as the available liquid. On test days 1-3 groups of rats were injected ip with either physiological saline, spexin (70 μg/kg body weight), or LiCl (63.5 mg/kg body weight). All groups experienced their first saccharin exposure and injection on test day 1. […]

SMILES | toxicity, nausea or taste aversion behaviors [1] | toxicity, nausea or taste aversion behaviors ([1]; listed as spexin) | total amount of 0.1% saccharin solution consumed vs saline [2]
CSCC[C@H](NC(=O)[C@H](C)NC(=O)[C@H](CCC(N)=O)NC(=O)[C@@H]1CCCN1C(=O)[C@@H](NC(=O)[C@H](Cc1c[nH]c2ccccc12)NC(=O)[C@@H](N)CC(N)=O)[C@@H](C)O)C(=O)N[C@@H](CC(C)C)C(=O)N[C@@H](Cc1ccc(O)cc1)C(=O)N[C@@H](CC(C)C)C(=O)N[C@@H](CCCCN)C(=O)NCC(=O)N[C@@H](C)C(=O)N[C@@H](CCC(N)=O)C(N)=O [Spexin, NWTPQAMLYLKGAQ-amide] | No indications of nausea or taste aversion behaviors; also recorded: No overt signs of Spexin-induced toxic effects | did not exhibit overt toxicity or nausea | No significant differences; also recorded: no signs of taste aversion were detected
[Cl-].[Li+] [LiCl, reference compound] | – | – | significantly less
